Assay results published in PubChem BioAssay (NCI).
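Following 48 hours of exposure in 96-well plates, responses at five concentrations were used to interpolate endpoints linearly. GI50 is the concentration that inhibits growth by half. The concentration for full growth arrest is given as TGI.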

Columns and labels:
Assay in all cases: DTP human tumour cell line panel, 48 h
OVCAR-5 ovarian = system: OVCAR-5 ovarian
COLO 205 colon = system: COLO 205 colon
A498 renal = system: A498 renal
786-0 renal = system: 786-0 renal
UO-31 renal = system: UO-31 renal
SF-268 CNS = system: SF-268 CNS
UACC-257 melanoma = system: UACC-257 melanoma
EKVX NSCLC = system: EKVX NSCLC
HS 578T breast = system: HS 578T breast
MDA-MB-231 breast = system: MDA-MB-231 breast

SMILES: CC(=O)NC1C(OCc2ccccc2)OC(COC(=O)CCCCCCCCCCNC(=O)CCNc2ccc([N+](=O)[O-])c3[nH]c4ccc(O)cc4c(=O)c23)C(O)C1OC(C)C(=O)N[C@H](C(=O)N[C@H](CCC(=O)O)C(N)=O)C(C)C (stereo partly drawn)
- TGI (OVCAR-5 ovarian): > 100 µM
- TGI (COLO 205 colon): > 100 µM
- TGI (A498 renal): > 100 µM
- TGI (786-0 renal): > 100 µM
- TGI (UO-31 renal): > 100 µM
- TGI (SF-268 CNS): > 100 µM
- TGI (UACC-257 melanoma): > 100 µM
- TGI (EKVX NSCLC): > 100 µM

SMILES: COc1cc(C2C(Cl)C(=O)N2NC(=O)c2ccccc2O)cc(OC)c1OC (stereo not drawn)
- TGI (OVCAR-5 ovarian): > 10 µM
- TGI (786-0 renal): > 10 µM
- TGI (UO-31 renal): > 10 µM
- TGI (SF-268 CNS): > 10 µM
- TGI (UACC-257 melanoma): 7.46 µM
- TGI (HS 578T breast): > 10 µM
- TGI (EKVX NSCLC): > 10 µM

SMILES: CC(=O)c1ccc(-c2ccc(C(C)=O)s2)s1
- TGI (OVCAR-5 ovarian): > 100 µM
- TGI (COLO 205 colon): > 100 µM
- TGI (A498 renal): 4.16 µM
- TGI (786-0 renal): > 100 µM
- TGI (UO-31 renal): > 100 µM
- TGI (UACC-257 melanoma): > 100 µM
- TGI (EKVX NSCLC): > 100 µM

SMILES: O=C(NCCOCCO)c1ccc(O)cc1
- TGI (COLO 205 colon): > 100 µM
- TGI (A498 renal): > 100 µM
- TGI (786-0 renal): > 100 µM
- TGI (UO-31 renal): > 100 µM
- TGI (SF-268 CNS): > 100 µM
- TGI (EKVX NSCLC): 42.9 µM

SMILES: COc1ccc2c(c1)cn1c3ccc(OC)cc3[nH]c(=O)c21
- GI50 (OVCAR-5 ovarian): < 0.0232 µM
- TGI (OVCAR-5 ovarian): 1.81 µM
- GI50 (COLO 205 colon): < 0.0175 µM
- TGI (COLO 205 colon): 0.0294 µM
- GI50 (A498 renal): < 0.0258 µM
- GI50 (786-0 renal): < 0.0231 µM
- TGI (786-0 renal): 1.56 µM
- GI50 (UO-31 renal): < 0.0169 µM
- TGI (UO-31 renal): 1.77 µM
- GI50 (SF-268 CNS): < 0.0229 µM
- TGI (SF-268 CNS): 1.47 µM
- GI50 (UACC-257 melanoma): 14.6 µM
- TGI (UACC-257 melanoma): 29.5 µM
- GI50 (MDA-MB-231 breast): < 0.0188 µM
- TGI (MDA-MB-231 breast): 0.27 µM
- GI50 (EKVX NSCLC): < 0.0256 µM
- TGI (EKVX NSCLC): 1.76 µM

SMILES: O=C1C2Cc3ccccc3CN2C(=O)N1CCN1CCOCC1 (stereo not drawn)
- TGI (OVCAR-5 ovarian): > 100 µM
- TGI (COLO 205 colon): > 100 µM
- TGI (A498 renal): > 100 µM
- TGI (786-0 renal): > 100 µM
- TGI (UO-31 renal): > 100 µM
- TGI (SF-268 CNS): > 100 µM

SMILES: Nc1c(-c2ccc(-c3c(N)[n+]([O-])c4ccccc4[n+]3[O-])cc2)[n+]([O-])c2ccccc2[n+]1[O-]
- TGI (OVCAR-5 ovarian): 35.2 µM
- TGI (COLO 205 colon): 29.6 µM
- TGI (A498 renal): 35.5 µM
- TGI (786-0 renal): 26.9 µM
- TGI (UO-31 renal): 32.6 µM
- TGI (SF-268 CNS): 66.2 µM
- TGI (UACC-257 melanoma): 13.8 µM
- TGI (EKVX NSCLC): 79.9 µM

SMILES: O=C1OC(/C=C/c2ccccc2)C(=O)C1=O (stereo not drawn)
- TGI (OVCAR-5 ovarian): > 100 µM
- TGI (COLO 205 colon): > 100 µM
- TGI (A498 renal): > 100 µM
- TGI (786-0 renal): > 100 µM
- TGI (UO-31 renal): > 100 µM
- TGI (SF-268 CNS): > 100 µM
- TGI (UACC-257 melanoma): > 100 µM
- TGI (EKVX NSCLC): > 100 µM

SMILES: CCN(CC)[C@@H]1c2cc3c(cc2C(c2cc(OC)c(O)c(OC)c2)C2C(=O)CO[C@@H]21)OCO3 (stereo partly drawn)
- TGI (OVCAR-5 ovarian): > 100 µM
- TGI (COLO 205 colon): > 100 µM
- TGI (A498 renal): > 100 µM
- TGI (786-0 renal): > 100 µM
- TGI (UO-31 renal): > 100 µM
- TGI (SF-268 CNS): > 100 µM
- TGI (UACC-257 melanoma): > 100 µM
- TGI (EKVX NSCLC): > 100 µM

SMILES: COC(=O)C1=CCS(=O)(=O)C1
- TGI (OVCAR-5 ovarian): > 100 µM
- TGI (COLO 205 colon): > 100 µM
- TGI (A498 renal): > 100 µM
- TGI (786-0 renal): > 100 µM
- TGI (UO-31 renal): > 100 µM
- TGI (SF-268 CNS): > 100 µM
- TGI (UACC-257 melanoma): > 100 µM
- TGI (EKVX NSCLC): > 100 µM

SMILES: OCC1C2C=CC(O2)[C@H]1CO (stereo partly drawn)
- TGI (OVCAR-5 ovarian): > 100 µM
- TGI (COLO 205 colon): > 100 µM
- TGI (A498 renal): > 100 µM
- TGI (786-0 renal): > 100 µM
- TGI (UO-31 renal): > 100 µM
- TGI (SF-268 CNS): > 100 µM
- TGI (UACC-257 melanoma): > 100 µM
- TGI (EKVX NSCLC): > 100 µM

SMILES: O=C(c1ccccc1)C(c1ccccc1)C1(O)C(=O)Nc2ccc(Br)cc21 (stereo not drawn)
- TGI (OVCAR-5 ovarian): > 100 µM
- TGI (COLO 205 colon): > 100 µM
- TGI (A498 renal): > 100 µM
- TGI (786-0 renal): > 100 µM
- TGI (UO-31 renal): > 100 µM
- TGI (SF-268 CNS): > 100 µM
- TGI (UACC-257 melanoma): 53.8 µM
- TGI (EKVX NSCLC): > 100 µM

SMILES: CCC1(O)CC(c2ccccc2)N(C)C(c2ccccc2)C1 (stereo not drawn)
- TGI (OVCAR-5 ovarian): > 100 µM
- TGI (COLO 205 colon): > 100 µM
- TGI (A498 renal): > 100 µM
- TGI (786-0 renal): > 100 µM
- TGI (UO-31 renal): > 100 µM
- TGI (SF-268 CNS): > 100 µM
- TGI (UACC-257 melanoma): > 100 µM
- TGI (EKVX NSCLC): > 100 µM

SMILES: COc1ccc(/C=C\c2cc(OC)c(OC(C)=O)c(OC)c2)cc1
- TGI (OVCAR-5 ovarian): 88.8 µM
- TGI (COLO 205 colon): > 100 µM
- TGI (A498 renal): 45 µM
- TGI (786-0 renal): > 100 µM
- TGI (UO-31 renal): 50.1 µM
- TGI (SF-268 CNS): > 100 µM
- TGI (UACC-257 melanoma): 95.1 µM
- TGI (EKVX NSCLC): > 100 µM

SMILES: OC1/C(=C/c2ccccc2)CNC/C1=C\c1ccccc1 (stereo not drawn)
- TGI (OVCAR-5 ovarian): > 100 µM
- TGI (COLO 205 colon): > 100 µM
- TGI (A498 renal): > 100 µM
- TGI (786-0 renal): > 100 µM
- TGI (UO-31 renal): > 100 µM
- TGI (SF-268 CNS): > 100 µM
- TGI (UACC-257 melanoma): > 100 µM
- TGI (EKVX NSCLC): > 100 µM

SMILES: NCCCCNCCCNC(=O)c1csc(-c2nc(CCN)sc2Cl)n1
- TGI (OVCAR-5 ovarian): > 100 µM
- TGI (COLO 205 colon): > 100 µM
- TGI (A498 renal): > 100 µM
- TGI (786-0 renal): > 100 µM
- TGI (UO-31 renal): > 100 µM
- TGI (SF-268 CNS): > 100 µM
- TGI (UACC-257 melanoma): > 100 µM
- TGI (HS 578T breast): > 100 µM
- TGI (EKVX NSCLC): > 100 µM

SMILES: OC1OC2COC(c3ccccc3)OC2C(O)C1O (stereo not drawn)
- TGI (OVCAR-5 ovarian): > 100 µM
- TGI (COLO 205 colon): > 100 µM
- TGI (A498 renal): > 100 µM
- TGI (786-0 renal): > 100 µM
- TGI (UO-31 renal): > 100 µM
- TGI (SF-268 CNS): > 100 µM
- TGI (UACC-257 melanoma): > 100 µM
- TGI (EKVX NSCLC): > 100 µM

SMILES: Cc1ccc(Sc2cc([N+](=O)[O-])cc(Sc3ccc(C)cc3)c2Sc2ccc(C)cc2)cc1
- TGI (OVCAR-5 ovarian): > 100 µM
- TGI (COLO 205 colon): > 100 µM
- TGI (A498 renal): > 100 µM
- TGI (786-0 renal): > 100 µM
- TGI (UO-31 renal): > 100 µM
- TGI (SF-268 CNS): > 100 µM
- TGI (UACC-257 melanoma): > 100 µM
- TGI (EKVX NSCLC): > 100 µM
